Non-standard residues stand in square brackets, D forms with d. No end group written: not given here.

13 substances from patent US6048840A, “Hypoglycaemic peptides” (Monash University, priority 1987, dated 2000) can be followed below.

Test [1] relates to cultured muscle cells (L6 rat skeletal muscle cell line). Description: Cultured cell assay for stimulation of glucose uptake. It is filed as cell-based. As to conditions: peptide 10 μg/ml. The source says: (§1) In these assays collagenase-dispersed rat adipocytes, cultured muscle cells (L6 rat skeletal muscle cell line) and hemidiaphragm preparations were employed.
(§2) The effect of the β imide form peptides on glucose metabolism is further shown by their ability to stimulate glucose uptake and glycogen synthesis by cultured muscle cells and isolated rat hemidiaphragms.

For test [2], the system named is isolated rat hemidiaphragms. Description: Isolated muscle assay for stimulation of glycogen synthesis. Conditions: peptide 100 μg/ml. It is filed as cell-based.
Excerpt: as §1, §2

Test [3] deals with rats. Description: Change in blood glucose level in rats following intravenous injection of peptides. It is filed as in vivo, rat. The source says: (i) Effect on basal blood glucose levels
Values are changes (means ±SEM) of blood glucose from the basal level (4.0-4.4 mmol glucose/l) at time 0. Differences between the control and test groups were statistically evaluated according to Student's t-test. N.S. indicates 2P>0.05.

As for CYLSRLFDNA [Pep P168], in test [1], the “Rate of Increase from Basal (glucose uptake)” value was found to be 4.0 μmol glucose/hour.

CYLSRLFDNA [Pep P202]: the “Rate of Increase from Basal (glucose uptake)” value in test [1] came out at 1.9 μmol glucose/hour. Besides, the “Rate of Increase from Basal (glycogen synthesis)” value in test [2] is reported as 0.44 μmol glycogen/g tissue/h. As to CYLSRLFDNN [Pep P197], the “Rate of Increase from Basal (glycogen synthesis)” value in test [2] worked out at 0.17 μmol glycogen/g tissue/h. Still for that read-out and setting: to LSKLFDNA [Pep P090] belongs 0.16 μmol glycogen/g tissue/h; to LSRIFDNA [Pep P087], 0.36 μmol glycogen/g tissue/h.

In the case of “LSRLFDNA [Pep P051, b240 implies β imide form]”, in test [1], the “Rate of Increase from Basal (glucose uptake)” value turned out to be 3.3 μmol glucose/hour. Besides, the “Rate of Increase from Basal (glycogen synthesis)” value in test [2] came out at 0.74 μmol glycogen/g tissue/h.

Turning to LSRLFDNAG [Pep P063], the “Rate of Increase from Basal (glucose uptake)” value in test [1] is recorded as 1.9 μmol glucose/hour. With LSRLFDQA [Pep P076], the “Rate of Increase from Basal (glycogen synthesis)” value in test [2] is reported as 0.30 μmol glycogen/g tissue/h.

In the case of LSRLHDNA [Pep P078], the “Rate of Increase from Basal (glycogen synthesis)” value in test [2] was 0.11 μmol glycogen/g tissue/h. In the case of LSRL[dF]DNA [Pep P057], in test [1], the “Rate of Increase from Basal (glucose uptake)” value was 2.0 μmol glucose/hour. Consider LSRVFDNA [Pep P086], for which the “Rate of Increase from Basal (glucose uptake)” value in test [1] came out at 4.9 μmol glucose/hour.

“Pep (6-15): α-form synthetic peptide equivalent to hGH residues 6-15 (LSRLFDNAML; Somatotropin; UniProt P01241 32-41, looked up, fragment)” yielded a Difference from control means in test [3] (i.v., peptide 0.5 μmol/100 g, control decrease 1.05) of 0.21 mmol/L. Also, the “Hypoglycaemic effect / activity in words” value in test [3] (intravenous injection of peptide) is “active only in the β imide form”. Also, in test [3] (intravenous injection, peptide 0.5 μmol/100 g, basal level 4.0-4.4 mmol glucose/l at time 0), the “Decrease in blood glucose from basal levels” value came to 1.26 mmol glucose/l. For the substance “SRLFDNA [Pep P015, synthetic peptide; b240 implies β imide form]”, the “Rate of Increase from Basal (glucose uptake)” value in test [1] is recorded as 1.5 μmol glucose/hour.
